# Measured values: patent US20230322723A1, “COMPOUNDS FOR SUPPRESSING EGFR MUTANT CANCER AND PHARMACEUTICAL USE THEREOF” (J2H BIOTECH INC., priority 2020, published 2023)
# Tests used:
# [1] = Pharmacokinetic evaluation after single oral administration to ICR mice; format: in vivo; settings: mouse, ICR mice, single oral dose 5 mg/kg, plasma; for AUC(0-t): read-out: AUC0-24
# Description: Pharmacokinetic tests for the compounds of the present invention were conducted as below. After a single oral administration of the compound of the present invention to ICR mice, the concentration of the compound over time was followed up and analyzed.
# The compound of the present invention was suspended in 10% DMSO/90% (30% HPbCD aqueous solution) and orally administered to mice at a dose of 5 mg/kg. Blood was collected at a fixed time and plasma was separated. Drug analysis was performed using HPLC (XBridge column C18, Waters, mobile phase 0.1% formic acid:acetonitrile (30:70, %/%)) and MS/MS (ESI positive, MRM). Mouse blood plasma and each commercially available standard solution were mixed at a ratio of 9:1 to prepare and calibrate at concentrations of […] 5,000 ng/mL. In addition, the preparation of QC samples was prepared by mixing the mouse blood plasma and the standard solution for QC at a ratio of 9:1, and prepared to be concentrations of 100, 750 and 2,500 ng/mL. 100 μL of the plasma sample was transferred to a centrifugation tube, and 10 μL of the internal standard solution and 300 μL of methanol were added, followed by mixing for about 30 seconds for pretreatment. The tube was centrifuged at 3,000×g (4° C.) for about 5 minutes, and the supernatant was taken and transferred to an LC vial and injected into the instrument. Then, the concentration of the compound in mouse plasma was quantified by applying a previously validated assay. For pharmacokinetic parameters, the program WinNonlin 5.2 (Pharsight, USA) was used. AUC0-t, AUC0-∞, Cmax, Tmax, and t1/2 were calculated by Noncompartment modeling (best fit). The pharmacokinetic parameter results were expressed as the mean (Mean) and standard deviation (SD), and were statistically processed using the SPSS program (Statistical Package for the Social Sciences, 10.0K, USA).
# [2] = system: EGFR^del19+T790M+C797S; experiment: EGFR protein degradation test (Western blot) in Ba/F3 cells expressing mutant EGFR del19+T790M+C797S (DTC); format: cell-based; settings: compounds at 0.1 μM and 1 μM, 24 hours, Western blot with EGFR antibody
# Outline: (§1)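 EGFR protein level was measured by Western blot on 30 μg lysate, bands quantified by imager. Lysates came from Ba/F3 lines carrying normal, LTC or DTC mutant EGFR, exposed 24 h to compound at 0.1 and 1 μM.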
# [3] = target: T1, EGFR^L858R+T790M+C797S (Homo sapiens, UniProt P00533, C797S/L858R/T790M); experiment: EGFR protein degradation test (Western blot) in Ba/F3 cells expressing mutant EGFR L858R+T790M+C797S (LTC); format: cell-based; settings: compounds at 0.1 μM and 1 μM, 24 hours, Western blot with EGFR antibody
# T1 construct: expressed in transfected cells; host or cells: Ba/F3
# Outline: as §1
# T1 sequence (P00533 25-1210 T790M/C797S/L858R): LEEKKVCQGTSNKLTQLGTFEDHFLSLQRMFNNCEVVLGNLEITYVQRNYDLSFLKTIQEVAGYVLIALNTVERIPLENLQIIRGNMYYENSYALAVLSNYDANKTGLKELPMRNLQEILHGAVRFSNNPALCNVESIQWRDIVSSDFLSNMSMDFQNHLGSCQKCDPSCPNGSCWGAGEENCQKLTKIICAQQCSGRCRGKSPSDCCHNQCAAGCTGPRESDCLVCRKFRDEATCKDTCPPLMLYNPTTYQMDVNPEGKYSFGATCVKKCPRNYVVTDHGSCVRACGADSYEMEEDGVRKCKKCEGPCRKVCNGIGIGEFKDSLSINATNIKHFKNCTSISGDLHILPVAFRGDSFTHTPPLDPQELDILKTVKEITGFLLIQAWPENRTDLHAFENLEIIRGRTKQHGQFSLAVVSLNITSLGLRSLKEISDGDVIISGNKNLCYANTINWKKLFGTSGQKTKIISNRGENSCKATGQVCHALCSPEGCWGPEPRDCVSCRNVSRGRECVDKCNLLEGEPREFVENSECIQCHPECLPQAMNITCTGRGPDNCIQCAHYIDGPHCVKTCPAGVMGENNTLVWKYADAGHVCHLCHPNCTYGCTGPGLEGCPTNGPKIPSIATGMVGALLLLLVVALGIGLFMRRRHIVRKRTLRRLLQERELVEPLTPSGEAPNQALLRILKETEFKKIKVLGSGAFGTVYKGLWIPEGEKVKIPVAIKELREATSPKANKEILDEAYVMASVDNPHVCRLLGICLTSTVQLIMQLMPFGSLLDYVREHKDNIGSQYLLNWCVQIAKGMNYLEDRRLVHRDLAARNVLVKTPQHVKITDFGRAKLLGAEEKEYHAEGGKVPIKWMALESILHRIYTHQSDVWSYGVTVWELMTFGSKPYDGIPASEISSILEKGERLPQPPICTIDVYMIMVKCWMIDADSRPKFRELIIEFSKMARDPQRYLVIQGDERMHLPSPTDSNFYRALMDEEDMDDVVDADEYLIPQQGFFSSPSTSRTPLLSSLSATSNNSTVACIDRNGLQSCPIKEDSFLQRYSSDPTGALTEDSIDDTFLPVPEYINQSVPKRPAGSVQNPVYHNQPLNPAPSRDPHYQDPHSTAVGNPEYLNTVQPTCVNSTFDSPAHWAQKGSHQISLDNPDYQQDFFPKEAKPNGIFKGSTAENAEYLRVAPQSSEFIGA
Compound,half-life [1] [h],AUC(0-t) [1] [ng·h/mL],DTC (EGFR^del19+T790M+C797S) protein degradation [2],LTC (EGFR^L858R+T790M+C797S) protein degradation [3]
"COc1cc(N2CCC(N3CCN(CC(=O)N[C@H](C(=O)N4C[C@H](O)C[C@@H]4C(=O)NCc4ccc(-c5scnc5C)cc4)C(C)(C)C)CC3)CC2)ccc1Nc1ncc(Cl)c(Nc2ccccc2N(C)S(C)(=O)=O)n1 [Compound 11, (2R,4R)-1-((S)-2-(2-(4-(1-(4-((5-chloro-4-((2-(N-methylmethylsulfonamido)phenyl)amino)pyrimidin-2-yl)amino)-3-methoxyphenyl)piperidin-4-yl)piperazin-1-yl)acetamido)-3,3-dimethylbutanoyl)-4-hydroxy-N-(4-(4-methylthiazol-5-yl)benzyl)pyrrolidin-2-carboxamide]",6.54,553,++ (Protein degradation > 80%),++ (Protein degradation > 80%)
"COc1cc(N2CCC(N3CCN(CCC(=O)N[C@H](C(=O)N4C[C@H](O)C[C@@H]4C(=O)NCc4ccc(-c5scnc5C)cc4)C(C)(C)C)CC3)CC2)ccc1Nc1ncc(Cl)c(Nc2ccccc2N(C)S(C)(=O)=O)n1 [Compound 20, (2R,4R)-1-((S)-2-(3-(4-(1-(4-((5-chloro-4-((2-(N-methylmethylsulfonamido)phenyl)amino)pyrimidin-2-yl)amino)-3-methoxyphenyl)piperidin-4-yl)piperazin-1-yl)propanamido)-3,3-dimethylbutanoyl)-4-hydroxy-N-(4-(4-methylthiazol-5-yl)benzyl)pyrrolidin-2-carboxamide]",8.99,42,++ (Protein degradation > 80%),++ (Protein degradation > 80%)
"COc1cc(N2CCC(N3CCN(CC(=O)Nc4cccc5c4CN(C4CCC(=O)NC4=O)C5=O)CC3)CC2)ccc1Nc1ncc(Cl)c(Nc2ccccc2N(C)S(C)(=O)=O)n1 (centres unmarked) [Compound 22, 2-(4-(1-(4-((5-chloro-4-((2-(N-methylmethylsulfonamido)phenyl)amino)pyrimidin-2-yl)amino)-3-methoxyphenyl)piperidin-4-yl)piperazin-1-yl)-N-(2-(2,6-dioxopiperidin-3-yl)-1-oxoisoindolin-4-yl)acetamide]",12.4,47,++ (Protein degradation > 80%),++ (Protein degradation > 80%)
"COc1cc(N2CCC(CN3CCN(CC(=O)Nc4cccc5c4CN(C4CCC(=O)NC4=O)C5=O)CC3)CC2)ccc1Nc1ncc(Cl)c(Nc2ccccc2N(C)S(C)(=O)=O)n1 (centres unmarked) [Compound 24, 2-(4-((1-(4-((5-chloro-4-((2-(N-methylmethylsulfonamido)phenyl)amino)pyrimidin-2-yl)amino)-3-methoxyphenyl)piperidin-4-yl)methyl)piperazin-1-yl)-N-(2-(2,6-dioxopiperidin-3-yl)-1-oxoisoindolin-4-yl)acetamide]",12.4,17,++ (Protein degradation > 80%),++ (Protein degradation > 80%)
"COc1cc(N2CCN(CC3CCN(CC(=O)Nc4cccc5c4CN(C4CCC(=O)NC4=O)C5=O)CC3)CC2)ccc1Nc1ncc(Cl)c(Nc2ccccc2N(C)S(C)(=O)=O)n1 (centres unmarked) [Compound 26, 2-(4-((4-(4-((5-chloro-4-((2-(N-methylmethylsulfonamido)phenyl)amino)pyrimidin-2-yl)amino)-3-methoxyphenyl)piperazin-1-yl)methyl)piperidin-1-yl)-N-(2-(2,6-dioxopiperidin-3-yl)-1-oxoisoindolin-4-yl)acetamide]",9.29,32,++ (Protein degradation > 80%),++ (Protein degradation > 80%)
"CN(c1ccccc1Nc1nc(Nc2ccc(N3CCN(CC4CCN(C(=O)COc5cccc6c5C(=O)N(C5CCC(=O)NC5=O)C6=O)CC4)CC3)c(F)c2)ncc1Cl)S(C)(=O)=O (centres unmarked) [Compound 43, N-(2-((5-chloro-2-((4-(4-((1-(2-((2-(2,6-dioxopiperidin-3-yl)-1,3-dioxoisoindolin-4-yl)oxy)acetyl)piperidin-4-yl)methyl)piperazin-1-yl)-3-fluorophenyl)amino)pyrimidin-4-yl)amino)phenyl)-N-methylmethanesulfonamide]",5.07,346,++ (Protein degradation > 80%),++ (Protein degradation > 80%)
"COc1cc(N2CCC(N3CCN(CCNc4cccc5c4C(=O)N(C4CCC(=O)NC4=O)C5=O)CC3)CC2)ccc1Nc1ncc(Cl)c(Nc2ccccc2N(C)S(C)(=O)=O)n1 (centres unmarked) [Compound 45, N-(2-((5-chloro-2-((4-(4-(4-(2-((2-(2,6-dioxopiperidin-3-yl)-1,3-dioxoisoindolin-4-yl)amino)ethyl)piperazin-1-yl)piperidin-1-yl)-2-methoxyphenyl)amino)pyrimidin-4-yl)amino)phenyl)-N-methylmethanesulfonamide]",3.45,992,++ (Protein degradation > 80%),++ (Protein degradation > 80%)
"COc1cc(N2CCC(N3CCN(CC(=O)Nc4ccc5c(c4)CN(C4CCC(=O)NC4=O)C5=O)CC3)CC2)ccc1Nc1ncc(Cl)c(Nc2ccccc2N(C)S(C)(=O)=O)n1 (centres unmarked) [Compound 47, 2-(4-(1-(4-((5-chloro-4-((2-(N-methylmethylsulfonamido)phenyl)amino)pyrimidin-2-yl)amino)-3-methoxyphenyl)piperidin-4-yl)piperazin-1-yl)-N-(2-(2,6-dioxopiperidin-3-yl)-1-oxoisoindolin-5-yl)acetamide]",4.13,134,++ (Protein degradation > 80%),++ (Protein degradation > 80%)
"COc1cc(N2CCC(N3CCN(CCC4CCN(c5ccc6c(c5)C(=O)N(C5CCC(=O)NC5=O)C6=O)CC4)CC3)CC2)ccc1Nc1ncc(Cl)c(Nc2ccccc2N(C)S(C)(=O)=O)n1 (centres unmarked) [Compound 51, N-(2-((5-chloro-2-((4-(4-(4-(2-(1-(2-(2,6-dioxopiperidin-3-yl)-1,3-dioxoisoindolin-5-yl)piperidin-4-yl)ethyl)piperazin-1-yl)piperidin-1-yl)-2-methoxyphenyl)amino)pyrimidin-4-yl)amino)phenyl)-N-methylmethanesulfonamide]",2.81,635,++ (Protein degradation > 80%),++ (Protein degradation > 80%)
"COc1cc(N2CCN(CC3CCN(C(=O)COc4cccc5c4C(=O)N(C4CCC(=O)NC4=O)C5=O)CC3)CC2)ccc1Nc1ncc(Cl)c(Nc2ccccc2N(C)S(C)(=O)=O)n1 (centres unmarked) [Compound 53, N-(2-((5-chloro-2-((4-(4-((1-(2-((2-(2,6-dioxopiperidin-3-yl)-1,3-dioxoisoindolin-4-yl)oxy)acetyl)piperidin-4-yl)methyl)piperazin-1-yl)-2-methoxyphenyl)amino)pyrimidin-4-yl)amino)phenyl)-N-methylmethanesulfonamide]",3.65,44,++ (Protein degradation > 80%),++ (Protein degradation > 80%)
"COc1cc(N2CCN(CC3CCN(C(=O)CCc4cccc5c4C(=O)N(C4CCC(=O)NC4=O)C5=O)CC3)CC2)ccc1Nc1ncc(Cl)c(Nc2ccccc2N(C)S(C)(=O)=O)n1 (centres unmarked) [Compound 54, N-(2-((5-chloro-2-((4-(4-((1-(3-(2-(2,6-dioxopiperidin-3-yl)-1,3-dioxoisoindolin-4-yl)propanoyl)piperidin-4-yl)methyl)piperazin-1-yl)-2-methoxyphenyl)amino)pyrimidin-4-yl)amino)phenyl)-N-methylmethanesulfonamide]",6.12,840,++ (Protein degradation > 80%),++ (Protein degradation > 80%)
